The results in this text go back to publication PMC7174758, “Synthesis and Biological Evaluation of HDAC Inhibitors With a Novel Zinc Binding Group” (Frontiers in Chemistry, 2020).

One data set concerns A549. The experiment in a line: MTT anti-proliferative assay, A549. The note with it: Homo sapiens, A549, 48 h, read-out: IC50 A549. In general terms: Formazan colour is commonly taken as a measure of viable cells.
The subject of the next data set is MCF-7. The experiment in a line: MTT anti-proliferative assay, MCF-7. To be noted: Homo sapiens, MCF7, 48 h, read-out: IC50 MCF-7.
For a further data set, the system named is acetyl-histone H3. Description: Western blot, acetylation of histone H3 in Hela cells. The class given is cell-based, human. On the procedure: (§1) Afterwards, the Hela cells were collected using centrifugation, and were then lysed by the lysate, which were carried out further centrifugation at 12,000 rpm for 30 min. The protein of supernatant obtained by centrifugation was quantified using the BCA kit (Beijing Solarbio Science & Technology Co., Ltd.), and the protein extracts were mixed with the SDS-PAGE protein loading buffer (Beijing Solarbio Science & Technology Co., Ltd.), which were subject to 100°C water bath for 10 min to sufficiently denaturate. The gel was gelatinized using the SDS Gel Kit (Beijing Solarbio Science & Technology Co., Ltd.) and protein extracts were separated by protein SDS-polyacrylamide gel electrophoresis and then transferred to Immobilon-NC Membrane (Beijing Solarbio Science & Technology Co., Ltd.). After the blocking with 5% non-fat dried milk in TBS for 90 min at room temperature, the membranes were incubated overnight with specific primary antibodies (AFFINITY BIOSCIENCE) at 4°C, which were further incubated with secondary antibodies for 2 h after washing three times with TBST. The chemiluminescence analysis system was applied to label the target protein with a specific primary antibody and the target protein was detected using a specific antibody.

In another data set the test system is acetyl-α-tubulin. Description: Western blot, acetylation of α-tubulin in Hela cells. The class given is cell-based, human. On the procedure: as §1
In general terms: In western blotting, separated proteins are transferred to a membrane and probed.

The next data set has as its system HepG2. The experiment in a line: MTT anti-proliferative assay, HepG2. To be noted: Homo sapiens, HepG2, 48 h, read-out: IC50 HepG2.
The next data set addresses T1, HDAC6 (Homo sapiens, UniProt Q9UBN7).
T1 construct: purchased Enzo Life Sciences BML-AK516
T1 sequence (Q9UBN7 1-1215): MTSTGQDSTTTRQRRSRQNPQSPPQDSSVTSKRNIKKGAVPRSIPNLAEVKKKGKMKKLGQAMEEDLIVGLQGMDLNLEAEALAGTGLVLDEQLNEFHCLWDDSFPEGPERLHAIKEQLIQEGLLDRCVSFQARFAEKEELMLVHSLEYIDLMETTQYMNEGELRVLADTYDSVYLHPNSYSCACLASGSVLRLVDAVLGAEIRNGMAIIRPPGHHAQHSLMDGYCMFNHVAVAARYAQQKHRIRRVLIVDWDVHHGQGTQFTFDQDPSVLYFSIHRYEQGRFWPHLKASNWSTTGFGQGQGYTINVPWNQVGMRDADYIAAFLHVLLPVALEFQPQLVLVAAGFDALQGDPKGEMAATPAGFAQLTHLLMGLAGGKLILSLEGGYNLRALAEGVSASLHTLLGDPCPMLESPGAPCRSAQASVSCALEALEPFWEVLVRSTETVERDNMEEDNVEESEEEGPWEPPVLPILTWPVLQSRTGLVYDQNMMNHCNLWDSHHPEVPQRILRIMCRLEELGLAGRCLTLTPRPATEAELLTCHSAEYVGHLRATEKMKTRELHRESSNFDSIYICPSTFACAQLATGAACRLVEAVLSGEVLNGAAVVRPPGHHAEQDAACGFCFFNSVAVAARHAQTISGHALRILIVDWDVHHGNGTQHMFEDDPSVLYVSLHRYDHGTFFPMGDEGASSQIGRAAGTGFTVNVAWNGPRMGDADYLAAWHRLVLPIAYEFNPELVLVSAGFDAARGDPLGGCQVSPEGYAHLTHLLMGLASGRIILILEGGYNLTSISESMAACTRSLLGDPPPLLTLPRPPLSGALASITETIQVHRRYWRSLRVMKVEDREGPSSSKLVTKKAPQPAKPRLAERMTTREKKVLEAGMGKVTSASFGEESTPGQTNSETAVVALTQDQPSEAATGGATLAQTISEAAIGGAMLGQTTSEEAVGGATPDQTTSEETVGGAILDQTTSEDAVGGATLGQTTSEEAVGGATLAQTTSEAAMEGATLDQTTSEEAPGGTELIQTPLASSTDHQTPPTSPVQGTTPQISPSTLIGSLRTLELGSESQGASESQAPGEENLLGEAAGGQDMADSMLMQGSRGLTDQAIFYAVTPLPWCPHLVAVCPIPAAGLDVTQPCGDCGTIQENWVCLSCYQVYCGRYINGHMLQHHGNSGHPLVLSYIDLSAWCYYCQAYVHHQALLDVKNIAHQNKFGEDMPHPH
The experiment in a line: Fluor de Lys HDAC6 assay kit. Type of data set: biochemical. How it is done: (§2) The generated fluorescence after the deacetylation of HDAC could be detected at the wavelengths of 485 nm (excitation) and 530 nm (emission) using the microplate reader (PerkinElmer, USA). The dose response of inhibition experiment was carried out in triplicate, and the IC50 data was calculated by GraphPad Prism 5.

A further data set deals with T2, HDAC1 (Homo sapiens, UniProt Q13547).
T2 construct: purchased Enzo Life Sciences BML-AK511
Description: Fluor de Lys HDAC1 assay kit. Type of data set: biochemical. To be noted: three independent experiments, mean ± SD. On the procedure: as §2

A further data set concerns Hela. Description: MTT anti-proliferative assay, Hela. The note with it: Homo sapiens, 48 h, read-out: IC50 Hela.
In a further data set the test system is WI-38. The experiment in a line: MTT cytotoxicity assay, normal cell line WI-38. The note with it: Homo sapiens, WI-38, 48 h, read-out: IC50 WI-38.
The subject of data set [1] is HDACs extracted from Hela cervical cancer cells. The experiment in a line: Enzyme inhibition assay, Hela nuclear extract (HDAC Inhibitor Drug Screening Kit). To be noted: read-out: Hela nuclear extract IC50; mean ± SD of three experiments.

T2 sequence (Q13547 whole entry): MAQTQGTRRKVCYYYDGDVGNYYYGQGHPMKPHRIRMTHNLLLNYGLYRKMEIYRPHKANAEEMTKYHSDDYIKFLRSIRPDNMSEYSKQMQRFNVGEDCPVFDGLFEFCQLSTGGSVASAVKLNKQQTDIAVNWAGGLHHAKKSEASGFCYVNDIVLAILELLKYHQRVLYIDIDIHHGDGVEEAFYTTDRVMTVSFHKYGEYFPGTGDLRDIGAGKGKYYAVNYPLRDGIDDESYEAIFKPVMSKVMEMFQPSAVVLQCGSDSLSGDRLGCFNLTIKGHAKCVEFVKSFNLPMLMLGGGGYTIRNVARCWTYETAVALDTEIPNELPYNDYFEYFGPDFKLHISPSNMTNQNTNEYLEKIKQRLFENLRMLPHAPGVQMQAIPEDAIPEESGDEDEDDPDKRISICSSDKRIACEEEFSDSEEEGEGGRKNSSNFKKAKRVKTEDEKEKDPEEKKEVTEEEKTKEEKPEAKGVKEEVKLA
Description for A549: (§3) The antitumor bioactivities of the tittle compounds in vitro were firstly evaluated against four different human tumor cell lines [breast lung cancer (A549), cervical cancer (Hela), liver cancer (HepG2), breast cancer (MCF-7)] via MTT assay, and a normal cell line [human lung fibroblast (WI-38)] was applied to assess the safety of the synthesized compounds. […] In this study, the tested compounds were diluted to the required concentration with culture medium, and growth inhibitory effects against the cell lines of the tittle compounds were determined by MTT colorimetric assay. […] The microplate reader was adopted to record the absorbance at 490 nm for each well of the plates.
Description for HepG2: as §3
Description for MCF-7: as §3
Description for WI-38: as §3

For `O=C(CCCCCNC(=O)c1ccc(-c2ccccc2)cc1)NCCO` [b8, N-(6-((2-hydroxyethyl)amino)-6-oxohexyl)-[1, 1'-biphenyl]-4-carboxamide], the melting point (as a rule, the temperature, or range, at which the solid turns liquid) lay in the range of 147.6 to 148.5 °C. In addition, the concentration for half-maximal inhibition (IC50) – broadly, the concentration that gives 50% inhibition – in the data set with A549 amounted to 26.5 ± 0.26 µM. In the data set on MCF-7, the 50% inhibitory concentration (IC50) was 40.1 ± 7.05 µM. Moreover, the “acetylation level of histone H3” value in the data set on acetyl-histone H3 (20 and 40 μM, 48 h) is “insensitive”. Moreover, the “acetylation level of α-Tubulin” value with acetyl-α-tubulin (20 and 40 μM, 48 h) is reported as “increase”. Besides, the IC50 with HepG2 came to 28.4 ± 0.65 µM. Further, the “inhibitory activity on HDAC6 relative to HDAC1” value at HDAC6 (HDAC6 vs HDAC1) is “more than ten folds”. Further, inhibition against HDAC6 (three independent experiments, mean ± SD) was half-maximal at 4.2 ± 1.27 µM (IC50). This compound had an IC50 on HDAC1 of 56.5 ± 2.7 µM. Also, the IC50 with Hela worked out at 13.7 ± 1.31 µM. In addition, in the data set on WI-38, the concentration for half-maximal inhibition (IC50) stood at 95.9 ± 4.28 µM. Further, the IC50 in data set [1] was 22.5 ± 5.2 µM.
On to `O=C(CCCCCCC(=O)Nc1ccccc1)NO` [SAHA, suberoylanilide hydroxamic acid, reference compound], for which the “acetylation level of histone H3” value in the data set on acetyl-histone H3 (5 μM, reference drug) was “up-regulated”. In the data set with acetyl-α-tubulin (5 μM, reference drug), the “acetylation level of α-Tubulin” value is “increase”.
